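A five-concentration, 48-hour dose response in 96-well plates underlies each endpoint, interpolated linearly between surrounding concentrations. At the GI50, growth is halved.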 Active and inactive are the calls of the source. No stated cut-off is given here; in the data, active = GI50 up to about 1.1 µM and inactive = higher.
What was measured:
Assay in all cases: DTP human tumour cell line panel, 48 h
TK-10 = system: TK-10
OVCAR-5 = system: OVCAR-5
PC-3 = system: PC-3
A498 = system: A498
M14 = system: M14
786-0 = system: 786-0
KM12 = system: KM12
BT-549 = system: BT-549
SK-MEL-28 = system: SK-MEL-28
RPMI-8226 = system: RPMI-8226
OVCAR-4 = system: OVCAR-4
UACC-257 = system: UACC-257
NCI-H460 = system: NCI-H460
SK-MEL-5 = system: SK-MEL-5
SF-295 = system: SF-295
NCI-H23 = system: NCI-H23
OVCAR-8 = system: OVCAR-8
SF-268 = system: SF-268
NCI-H226 = system: NCI-H226
MDA-N = system: MDA-N

Measured: GI50

O=S1(=O)OC(c2ccc(O)cc2)(c2ccc(O)cc2)c2ccccc21 [PHENOLSULFONPHTHALEIN]
inactive: TK-10 > 100 µM | OVCAR-5 > 100 µM | PC-3 > 100 µM | A498 > 100 µM | M14 > 100 µM | 786-0 > 100 µM | KM12 > 100 µM | BT-549 > 100 µM | SK-MEL-28 > 100 µM | RPMI-8226 > 100 µM | OVCAR-4 > 100 µM | UACC-257 > 100 µM | NCI-H460 > 100 µM | SK-MEL-5 > 100 µM | SF-295 > 100 µM | NCI-H23 > 100 µM | OVCAR-8 > 100 µM | SF-268 > 100 µM | NCI-H226 > 100 µM

COc1ccc(N2C(=O)CC(C3CC(C(C)(C)C)CCC3=O)C2=O)cc1 (stereo unspecified)
inactive: TK-10 > 100 µM | PC-3 > 100 µM | M14 > 100 µM | 786-0 > 100 µM | KM12 > 100 µM | BT-549 > 100 µM | SK-MEL-28 > 100 µM | RPMI-8226 > 100 µM | OVCAR-4 > 100 µM | UACC-257 > 100 µM | MDA-N > 100 µM | NCI-H460 > 100 µM | SK-MEL-5 > 100 µM | NCI-H23 > 100 µM | OVCAR-8 > 100 µM | SF-268 > 100 µM | NCI-H226 > 100 µM

Cc1cc2c(c(S(=O)(=O)c3ccc(Cl)cc3[N+](=O)[O-])c1)NCCC2
inactive: TK-10 > 100 µM | OVCAR-5 > 100 µM | PC-3 9.64 µM | A498 > 100 µM | M14 41.9 µM | 786-0 > 100 µM | KM12 35.1 µM | BT-549 > 100 µM | SK-MEL-28 > 100 µM | RPMI-8226 58.5 µM | OVCAR-4 15.3 µM | NCI-H460 74.1 µM | SK-MEL-5 25.9 µM | SF-295 53.2 µM | NCI-H23 45 µM | OVCAR-8 > 100 µM | SF-268 99.3 µM | NCI-H226 > 100 µM

NC1CC(=O)c2cc(Br)sc21 (stereo unspecified)
inactive: TK-10 > 100 µM | OVCAR-5 > 100 µM | PC-3 > 100 µM | A498 > 100 µM | M14 > 100 µM | 786-0 > 100 µM | KM12 > 100 µM | BT-549 > 100 µM | SK-MEL-28 > 100 µM | RPMI-8226 > 100 µM | UACC-257 > 100 µM | MDA-N > 100 µM | NCI-H460 > 100 µM | SK-MEL-5 > 100 µM | OVCAR-8 > 100 µM | SF-268 > 100 µM

CC(C)CC(Nc1c(O)ccc2ccccc12)C(=O)O (stereo unspecified)
inactive: TK-10 39.9 µM | OVCAR-5 80.7 µM | A498 23.3 µM | M14 37.8 µM | 786-0 59.3 µM | KM12 30.6 µM | BT-549 19.5 µM | SK-MEL-28 45.9 µM | RPMI-8226 28.2 µM | OVCAR-4 51.4 µM | UACC-257 20.5 µM | NCI-H460 35.2 µM | SK-MEL-5 18.3 µM | SF-295 20.5 µM | NCI-H23 19.5 µM | SF-268 24.7 µM | NCI-H226 20 µM

CC(C)(C)OC(=O)NC12C3C4C1C1C2C3C41NC(=O)OC(C)(C)C (stereo unspecified)
inactive: TK-10 > 100 µM | OVCAR-5 > 100 µM | PC-3 61.2 µM | A498 50.5 µM | M14 50 µM | 786-0 43.1 µM | KM12 15.8 µM | BT-549 42.6 µM | SK-MEL-28 51.4 µM | OVCAR-4 35.4 µM | UACC-257 39.4 µM | MDA-N 61.2 µM | NCI-H460 35.6 µM | SK-MEL-5 26.5 µM | SF-295 48.1 µM | NCI-H23 57.4 µM | OVCAR-8 30.5 µM | SF-268 35.8 µM

Cc1ccc(/C=C2\CCCc3ccccc3C2=O)cc1
inactive: TK-10 25.1 µM | OVCAR-5 10.3 µM | PC-3 14.7 µM | M14 3.21 µM | 786-0 18 µM | KM12 4.11 µM | BT-549 10.1 µM | SK-MEL-28 22.4 µM | RPMI-8226 16.3 µM | OVCAR-4 25.9 µM | UACC-257 21.9 µM | MDA-N 1.86 µM | NCI-H460 7.23 µM | SF-295 3.45 µM | NCI-H23 9.2 µM | OVCAR-8 22.4 µM | SF-268 11.2 µM | NCI-H226 6.46 µM

CCOC(=O)C1(C(=O)OCC)C[C@H](C)[C@](C)(O)C1
inactive: TK-10 > 100 µM | OVCAR-5 > 100 µM | PC-3 > 100 µM | A498 > 100 µM | M14 > 100 µM | 786-0 > 100 µM | KM12 > 100 µM | SK-MEL-28 > 100 µM | RPMI-8226 > 100 µM | OVCAR-4 > 100 µM | UACC-257 > 100 µM | MDA-N > 100 µM | NCI-H460 > 100 µM | SK-MEL-5 > 100 µM | SF-295 > 100 µM | NCI-H23 > 100 µM | OVCAR-8 > 100 µM | SF-268 > 100 µM | NCI-H226 > 100 µM

COc1ccc(Cn2c(=O)c(OS(=O)(=O)C(F)(F)F)c(C)c3cc4ccccc4cc32)cc1
inactive: TK-10 > 100 µM | OVCAR-5 > 100 µM | PC-3 > 100 µM | M14 > 100 µM | 786-0 > 100 µM | KM12 > 100 µM | BT-549 > 100 µM | SK-MEL-28 > 100 µM | OVCAR-4 88.7 µM | UACC-257 36 µM | MDA-N > 100 µM | NCI-H460 > 100 µM | SK-MEL-5 > 100 µM | SF-295 > 100 µM | NCI-H23 > 100 µM | OVCAR-8 > 100 µM | SF-268 > 100 µM | NCI-H226 > 100 µM

CC(C)=NN/C(=N\c1ccc(Cl)cc1)NS(=O)(=O)c1cc2ccccc2s1
inactive: TK-10 87.9 µM | OVCAR-5 32.7 µM | PC-3 45.7 µM | M14 56.5 µM | 786-0 > 100 µM | KM12 90.4 µM | BT-549 41.9 µM | SK-MEL-28 > 100 µM | RPMI-8226 29 µM | OVCAR-4 46.9 µM | UACC-257 55.3 µM | NCI-H460 > 100 µM | SK-MEL-5 > 100 µM | SF-295 57.5 µM | NCI-H23 76 µM | OVCAR-8 > 100 µM | SF-268 76.7 µM | NCI-H226 > 100 µM

C=C1C(=O)O[C@@H]2C(=O)[C@@H](C)CCC/C(C)=C/CC[C@@]3(C)O[C@@H]3C[C@@H]12
inactive: TK-10 27.7 µM | OVCAR-5 > 100 µM | PC-3 47 µM | A498 > 100 µM | M14 54.2 µM | 786-0 21.3 µM | KM12 29.8 µM | SK-MEL-28 > 100 µM | RPMI-8226 18.6 µM | OVCAR-4 79.4 µM | UACC-257 56.8 µM | MDA-N 34.4 µM | SK-MEL-5 29.9 µM | SF-295 > 100 µM | NCI-H23 > 100 µM | OVCAR-8 68.5 µM | NCI-H226 > 100 µM

Nc1ccccc1/N=C/c1cc2cc([N+](=O)[O-])ccc2s1
inactive: TK-10 15.2 µM | OVCAR-5 32.7 µM | PC-3 14.2 µM | A498 10.4 µM | M14 22.4 µM | 786-0 14.5 µM | KM12 10 µM | BT-549 12.5 µM | SK-MEL-28 22 µM | RPMI-8226 5.52 µM | UACC-257 19.5 µM | MDA-N 37.8 µM | NCI-H460 5.58 µM | SK-MEL-5 21.4 µM | SF-295 21.9 µM | NCI-H23 33 µM | OVCAR-8 15 µM | SF-268 14.6 µM

O=C1Oc2ccccc2C(=O)/C1=C/N1C(=O)CNC1=S
inactive: TK-10 > 100 µM | OVCAR-5 > 100 µM | PC-3 > 100 µM | M14 > 100 µM | 786-0 > 100 µM | KM12 > 100 µM | BT-549 > 100 µM | SK-MEL-28 > 100 µM | RPMI-8226 > 100 µM | OVCAR-4 > 100 µM | UACC-257 > 100 µM | MDA-N > 100 µM | NCI-H460 63 µM | SK-MEL-5 > 100 µM | SF-295 > 100 µM | NCI-H23 > 100 µM | OVCAR-8 > 100 µM | SF-268 > 100 µM | NCI-H226 > 100 µM

O=C(O)C1Cc2ccccc2OC1=O (stereo unspecified)
inactive: TK-10 > 100 µM | OVCAR-5 > 100 µM | PC-3 > 100 µM | M14 > 100 µM | 786-0 > 100 µM | KM12 > 100 µM | BT-549 > 100 µM | SK-MEL-28 > 100 µM | RPMI-8226 > 100 µM | UACC-257 > 100 µM | NCI-H460 > 100 µM | SK-MEL-5 > 100 µM | SF-295 > 100 µM | NCI-H23 8.69 µM | OVCAR-8 > 100 µM | SF-268 > 100 µM | NCI-H226 > 100 µM

CC(=O)OCC1OC(n2c(C)c(/N=N/c3ccccc3)c(C)c(C#N)c2=S)C(OC(C)=O)C(OC(C)=O)C1OC(C)=O (stereo unspecified)
inactive: TK-10 29 µM | OVCAR-5 86.9 µM | PC-3 > 100 µM | M14 33.7 µM | 786-0 7.38 µM | KM12 > 100 µM | BT-549 49.3 µM | SK-MEL-28 > 100 µM | RPMI-8226 > 100 µM | OVCAR-4 48.9 µM | UACC-257 > 100 µM | MDA-N > 100 µM | NCI-H460 39.8 µM | SK-MEL-5 34 µM | SF-295 15 µM | NCI-H23 > 100 µM | SF-268 57.1 µM

From ChEMBL document CHEMBL1201862, “PubChem BioAssay data set” (2004)
